{"source": "patent US11225486B2", "about": "“Tertiary alcohols as PI3K-γ inhibitors” (Incyte Corporation, priority 2017, dated 2022)", "key": {"[1]": {"target": "PI3Kγ (p110γ) Recombinant Human Protein (Homo sapiens (Human), UniProt P48736)", "sequence (P48736 whole entry)": "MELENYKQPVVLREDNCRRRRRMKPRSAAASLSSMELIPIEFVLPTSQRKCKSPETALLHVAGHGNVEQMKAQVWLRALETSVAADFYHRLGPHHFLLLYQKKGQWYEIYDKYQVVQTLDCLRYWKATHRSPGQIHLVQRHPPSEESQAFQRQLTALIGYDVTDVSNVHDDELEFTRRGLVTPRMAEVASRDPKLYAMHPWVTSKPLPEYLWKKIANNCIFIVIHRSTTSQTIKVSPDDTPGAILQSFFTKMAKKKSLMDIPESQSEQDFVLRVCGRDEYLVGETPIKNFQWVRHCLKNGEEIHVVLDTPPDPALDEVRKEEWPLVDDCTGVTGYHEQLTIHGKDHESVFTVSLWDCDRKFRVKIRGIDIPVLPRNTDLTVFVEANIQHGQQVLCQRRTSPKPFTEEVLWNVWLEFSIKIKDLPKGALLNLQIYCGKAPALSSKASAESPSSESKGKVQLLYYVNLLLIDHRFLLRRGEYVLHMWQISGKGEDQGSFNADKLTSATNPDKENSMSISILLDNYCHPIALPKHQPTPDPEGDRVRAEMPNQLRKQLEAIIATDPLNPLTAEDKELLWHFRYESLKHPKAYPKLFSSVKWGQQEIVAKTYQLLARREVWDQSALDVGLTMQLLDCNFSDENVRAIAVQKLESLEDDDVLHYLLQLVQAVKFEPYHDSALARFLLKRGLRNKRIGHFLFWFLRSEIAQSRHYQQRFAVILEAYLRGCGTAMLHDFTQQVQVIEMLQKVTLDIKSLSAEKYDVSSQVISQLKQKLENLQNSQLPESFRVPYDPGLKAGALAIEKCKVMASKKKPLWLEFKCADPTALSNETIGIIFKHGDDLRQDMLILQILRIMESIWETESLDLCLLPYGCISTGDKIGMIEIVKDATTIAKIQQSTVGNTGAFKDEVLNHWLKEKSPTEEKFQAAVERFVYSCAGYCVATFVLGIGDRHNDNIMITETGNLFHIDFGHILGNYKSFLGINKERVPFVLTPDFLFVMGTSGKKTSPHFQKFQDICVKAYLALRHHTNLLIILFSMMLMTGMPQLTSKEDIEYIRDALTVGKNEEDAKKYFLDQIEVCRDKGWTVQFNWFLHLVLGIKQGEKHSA", "experiment": "PI3K-γ scintillation proximity assay", "assay_type": "biochemical", "source_text": "Example B. PI3K-γ Scintillation Proximity Assay\n[γ-^33P]ATP (10 mCi/mL) and Wheat Germ Agglutinin (WGA) YSi SPA Scintillation Beads was purchased from Perkin-Elmer (Waltham, Mass.). Lipid kinase substrate, D-myo-Phosphatidylinositol 4,5-bisphosphate (PtdIns(4,5)P2)D (+)-sn-1,2-di-O-octanoylglyceryl, 3-O-phospho linked (PIP2), CAS 204858-53-7, was purchased from Echelon Biosciences (Salt Lake City, Utah). PI3Kγ (p110γ) Recombinant Human Protein was purchased from Life technology (Grand Island, N.Y.). ATP, MgCl2, DTT, EDTA, MOPS and CHAPS were purchased from Sigma-Aldrich (St. Louis, Mo.).\n(§1) The kinase reaction was conducted in polystyrene 384-well Greiner Bio-one white plate from Thermo Fisher Scientific in a final volume of 25 μL. Inhibitors were first diluted serially in DMSO and added to the plate wells before the addition of other reaction components. The final concentration of DMSO in the assay was 2%. The PI3Kγ assay was carried out at room temperature in 20 mM MOPS, pH 6.7, 10 mM MgCl2, 5 mM DTT and CHAPS 0.03%. Reactions were initiated by the addition of ATP, the final reaction mixture consisted of 20 μM PIP2, 2 μM ATP, 0.5 μCi [γ-^33P] ATP, 13 nM PI3Kγ. Reactions were incubated for 120 min and terminated by the addition of 40 μL SPA beads suspended in quench buffer: 163 mM potassium phosphate pH 7.8, 20% glycerol, 25 mM EDTA. The final concentration of SPA beads is 1.0 mg/mL. After the plate sealing, plates were shaken overnight at room temperature and centrifuged at 1500 rpm for 10 min, the radioactivity of the product was determined by scintillation counting on Topcount (Perkin-Elmer). IC50 determination was performed by fitting the curve of percent of the solvent control activity versus the log of the inhibitor concentration using the GraphPad Prism 6.0 software."}, "[2]": {"target": "PI3Kδ (p110δ/p85α) Recombinant Human Protein (Homo sapiens (Human), UniProt O00329)", "sequence (O00329 whole entry)": "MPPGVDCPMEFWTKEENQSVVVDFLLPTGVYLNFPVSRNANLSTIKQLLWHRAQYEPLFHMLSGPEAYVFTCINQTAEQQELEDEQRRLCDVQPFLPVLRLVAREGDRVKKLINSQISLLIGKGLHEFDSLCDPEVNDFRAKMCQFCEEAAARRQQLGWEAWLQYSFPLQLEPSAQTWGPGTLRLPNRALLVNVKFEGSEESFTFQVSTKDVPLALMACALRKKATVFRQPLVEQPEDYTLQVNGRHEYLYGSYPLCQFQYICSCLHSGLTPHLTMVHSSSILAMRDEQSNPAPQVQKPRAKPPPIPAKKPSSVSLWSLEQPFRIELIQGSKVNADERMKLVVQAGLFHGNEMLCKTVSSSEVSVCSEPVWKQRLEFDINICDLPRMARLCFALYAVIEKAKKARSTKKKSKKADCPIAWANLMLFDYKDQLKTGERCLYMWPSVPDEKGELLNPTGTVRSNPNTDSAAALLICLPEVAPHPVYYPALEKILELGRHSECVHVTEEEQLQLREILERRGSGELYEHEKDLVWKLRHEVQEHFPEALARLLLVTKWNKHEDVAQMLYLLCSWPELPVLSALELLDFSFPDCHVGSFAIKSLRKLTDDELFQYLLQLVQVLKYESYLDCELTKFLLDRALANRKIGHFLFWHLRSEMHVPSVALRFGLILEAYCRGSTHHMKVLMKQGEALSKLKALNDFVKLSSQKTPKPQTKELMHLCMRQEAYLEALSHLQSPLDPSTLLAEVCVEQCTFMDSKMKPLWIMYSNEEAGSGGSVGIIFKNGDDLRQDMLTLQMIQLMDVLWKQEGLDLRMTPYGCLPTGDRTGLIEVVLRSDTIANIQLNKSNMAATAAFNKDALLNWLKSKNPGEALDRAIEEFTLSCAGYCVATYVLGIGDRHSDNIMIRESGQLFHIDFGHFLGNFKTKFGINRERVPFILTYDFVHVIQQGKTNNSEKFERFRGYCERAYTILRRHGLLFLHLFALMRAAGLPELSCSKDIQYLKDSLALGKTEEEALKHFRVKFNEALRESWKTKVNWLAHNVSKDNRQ", "sequence (P27986 whole entry partner)": "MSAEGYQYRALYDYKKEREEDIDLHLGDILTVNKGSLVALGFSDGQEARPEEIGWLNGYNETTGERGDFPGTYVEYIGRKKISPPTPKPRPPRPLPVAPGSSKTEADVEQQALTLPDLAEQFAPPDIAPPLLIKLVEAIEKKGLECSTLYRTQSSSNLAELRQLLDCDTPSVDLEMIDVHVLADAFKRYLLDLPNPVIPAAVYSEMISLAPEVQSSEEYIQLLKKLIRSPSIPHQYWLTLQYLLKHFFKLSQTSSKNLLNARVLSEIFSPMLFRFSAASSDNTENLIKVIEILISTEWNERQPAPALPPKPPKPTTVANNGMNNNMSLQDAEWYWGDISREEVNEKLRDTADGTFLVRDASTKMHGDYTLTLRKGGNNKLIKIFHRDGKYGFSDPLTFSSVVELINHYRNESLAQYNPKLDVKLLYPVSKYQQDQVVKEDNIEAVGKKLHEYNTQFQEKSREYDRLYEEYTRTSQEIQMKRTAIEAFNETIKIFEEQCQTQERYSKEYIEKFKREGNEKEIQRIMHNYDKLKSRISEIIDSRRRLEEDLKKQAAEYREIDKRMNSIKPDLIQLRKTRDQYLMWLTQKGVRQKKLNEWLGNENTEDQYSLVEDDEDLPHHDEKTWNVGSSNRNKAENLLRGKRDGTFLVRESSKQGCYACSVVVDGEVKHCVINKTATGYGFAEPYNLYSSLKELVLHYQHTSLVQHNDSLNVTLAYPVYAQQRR", "experiment": "PI3Kδ scintillation proximity assay", "assay_type": "biochemical", "conditions": "read-out: P13Kδ IC50", "experimental": "PI3Kδ Scintillation Proximity Assay\n[γ-^33P]ATP (10 mCi/mL) and Wheat Germ Agglutinin (WGA) YSi SPA Scintillation Beads was purchased from Perkin-Elmer (Waltham, Mass.). […] PI3Kδ (p110δ/p85α) Recombinant Human Protein was purchased from Eurofins (St Charles, Mo.). ATP, MgCl2, DTT, EDTA, MOPS and CHAPS were purchased from SigmaAldrich (St. Louis, Mo.).\nas §1, with “PI3Kδ” for “PI3Kγ”, “ATP, 13 nM PI3Kγ. Reactions were incubated for 120 min and terminated by the addition of 40 μL SPA beads suspended in quench buffer: 163 mM potassium phosphate pH 7.8, 20% glycerol, 25 mM EDTA.” left out, “(PerkinElmer).” for “(Perkin-Elmer).”"}, "[3]": {"system": "Phosphorylated Ribosomal Protein S6 (RPS6) in THP-1 cells", "experiment": "THP-1 RPS6 ELISA assay", "assay_type": "cell-based", "conditions": "Homo sapiens, THP-1, THP-1 cells, 10 nM MCP-1 stimulation, phospho-RPS6 ELISA; read-out: PI3Kγ_THP1_RPS6_ELISA IC50", "experimental": "Example A. THP-1 RPS6 ELISA Assay\nTo measure the Phosphorylated Ribosomal Protein S6 (RPS6) in cell lysates, THP-1 cells (Human Acute Monocytic Leukemia) are purchased from ATCC (Manassas, Va.) and maintained in RPMI with 10% FBS (Gibco/Life Technologies, Carlsbad, Calif.). For the assay, THP-1 cells are serum starved overnight in RPMI, then plated in RPMI (2×10^5 cells/well in 90 μL) into 96-well flat-bottom tissue culture treated plates (Corning, Corning, N.Y.), in the presence or absence of a concentration range of test compounds. Covered plates are incubated for 2 hours at 37° C., 5% CO2 then treated with or without 10 nM MCP-1(MYBioSource, San Diego, Calif.) for 15 minutes at 37° C., 5% CO2. Plates are centrifuged at 1600 RPM and supernatants are removed. Cells are lysed in Lysis Buffer (Cell Signaling, Danvers, Mass.) with Protease Inhibitor (Calbiochem/EMD, Germany), PMSF (Sigma, St Louis Mo.), HALTS (Thermo Fisher, Rockford, Ill.) for 30 min on wet ice. Cell lysates are frozen at −80° C. before testing. The lysates are tested in the Human/Mouse/Rat Phospho-RPS6 ELISA (R&D Systems, Inc. Minn, Minn.). The plate is measured using a microplate reader (SpectraMax M5—Molecular Devices, LLC Sunnyvale, Calif.) set to 450 nm with a wavelength correction of 540. […]"}, "[4]": {"conditions": "20 μM PIP2, 2 μM ATP, 13 nM PI3Kγ"}, "[5]": {"conditions": "20 μM PIP2, 2 μM ATP, 3.4 nM PI3Kδ"}}, "note": "pIC50: −log10 of the molar value. Structures can show the parent of a compound that is named as a salt. Where two headings read alike, the source gives them in different places.", "data": [{"smiles": "Cc1ccc(C(O)(CO)C(F)(F)F)cc1-c1cnc2c(N)nc(-c3cnco3)cn12", "note": "(stereo not drawn) [Example 71, 2-(3-(8-Amino-6-(oxazol-5-yl)imidazo[1,2-a]pyrazin-3-yl)-4-methylphenyl)-3,3,3-trifluoropropane-1,2-diol trifluoroacetate salt]", "values": [{"measurement": "pIC50", "setting": "[1]", "result": "> 7.00"}, {"measurement": "pIC50", "setting": "[2]", "result": "> 7.00"}]}, {"smiles": "Cc1ccc(C(O)(C(N)=O)C(F)(F)F)cc1-c1cnc2c(N)nc(C(=O)NC34CCC(O)(CC3)C4)cn12", "note": "(single isomer, unassigned) [Example 260, 8-Amino-3-(5-(3-amino-1,1,1-trifluoro-2-hydroxy-3-oxopropan-2-yl)-2-methylphenyl)-N-(4-hydroxybicyclo[2.2.1]heptan-1-yl)imidazo[1,2-a]pyrazine-6-carboxamide trifluoroacetate salt (single enantiomer)]", "values": [{"measurement": "pIC50", "setting": "[1]; [4]", "result": "> 7.00"}, {"measurement": "pIC50", "setting": "[2]; [5]", "result": "6.30 to 7.00"}]}, {"smiles": "Cc1ncc(-c2cn3c(-c4cc(C(O)(CO)C(F)(F)F)ccc4C)cnc3c(N)n2)o1", "note": "(single isomer, unassigned) [Example 68, 2-(3-(8-Amino-6-(2-methyloxazol-5-yl)imidazo[1,2-o]pyrazin-3-yl)-4-methylphenyl)-3,3,3-trifluoropropane-1,2-diol]", "values": [{"measurement": "pIC50", "setting": "[1]; [4]", "result": "> 7.00"}, {"measurement": "pIC50", "setting": "[2]; [5]", "result": "> 7.00"}]}, {"smiles": "Cc1ncc(-c2cn3c(-c4cc(C(O)(CO)C(F)(F)F)ccc4C)cnc3c(N)n2)s1", "note": "(stereo not drawn) [Example 70, 2-(3-(8-Amino-6-(2-methylthiazol-5-yl)imidazo[1,2-a]pyrazin-3-yl)-4-methylphenyl)-3,3,3-trifluoropropane-1,2-diol trifluoroacetate salt]", "values": [{"measurement": "pIC50", "setting": "[1]", "result": "> 7.00"}, {"measurement": "pIC50", "setting": "[2]", "result": "> 7.00"}]}, {"smiles": "Cc1ccc(C(O)(CO)C(F)(F)F)cc1-c1cnc2c(N)nc(-c3cnn(C)c3)cn12", "note": "(stereo not drawn) [Example 69, 2-(3-(8-Amino-6-(1-methyl-1H-pyrazol-4-yl)imidazo[1,2-a]pyrazin-3-yl)-4-methylphenyl)-3,3,3-trifluoropropane-1,2-diol trifluoroacetate salt]", "values": [{"measurement": "pIC50", "setting": "[1]", "result": "> 7.00"}, {"measurement": "pIC50", "setting": "[2]", "result": "> 7.00"}]}, {"smiles": "Cc1ccc(C(O)(C(N)=O)C(F)(F)F)cc1-c1cnc2c(N)nc(C(C)(C)O)cn12", "note": "(single isomer, unassigned) [Example 255, 2-(3-(8-Amino-6-(2-hydroxypropan-2-yl)imidazo[1,2-a]pyrazin-3-yl)-4-methylphenyl)-3,3,3-trifluoro-2-hydroxypropanamide trifluoroacetate salt (single enantiomer)]", "values": [{"measurement": "pIC50", "setting": "[1]; [4]", "result": "> 7.00"}, {"measurement": "pIC50", "setting": "[2]; [5]", "result": "> 7.00"}]}, {"smiles": "Cc1ccc(C(C)(O)C(F)F)cc1-c1cnc2c(N)nc(-c3c[nH]nc3C)cn12", "note": "(stereo not drawn) [Example 47, 2-(3-(8-Amino-6-(3-methyl-1H-pyrazol-4-yl)imidazo[1,2-a]pyrazin-3-yl)-4-methylphenyl)-1,1-difluoropropan-2-ol, 1.2TFA]", "values": [{"measurement": "pIC50", "setting": "[3]", "result": "> 7.00"}, {"measurement": "pIC50", "setting": "[1]; [4]", "result": "> 7.00"}, {"measurement": "pIC50", "setting": "[2]; [5]", "result": "> 7.00"}]}]}
